Results taken from PubChem BioAssay (NCI).
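Cultured in 96-well plates, cells were exposed to test compound for 48 hours across five concentrations. TGI: total growth inhibition.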

Assays:
Experiment in all cases: NCI tumour cell line growth inhibition, 48 h
SN12C renal = tested on: SN12C renal
SK-MEL-28 melanoma = tested on: SK-MEL-28 melanoma
KM12 colon = tested on: KM12 colon
SK-MEL-2 melanoma = tested on: SK-MEL-2 melanoma
RPMI-8226 leukemia = tested on: RPMI-8226 leukemia
DU-145 prostate = tested on: DU-145 prostate
786-0 renal = tested on: 786-0 renal
UACC-62 melanoma = tested on: UACC-62 melanoma
BT-549 breast = tested on: BT-549 breast
NCI-H226 lung = tested on: NCI-H226 lung
OVCAR-8 ovarian = tested on: OVCAR-8 ovarian
SF-539 CNS = tested on: SF-539 CNS
SK-MEL-5 melanoma = tested on: SK-MEL-5 melanoma
HOP-62 NSCLC = tested on: HOP-62 NSCLC
SNB-75 CNS = tested on: SNB-75 CNS
CAKI-1 renal = tested on: CAKI-1 renal
SF-268 CNS = tested on: SF-268 CNS
UACC-257 melanoma = tested on: UACC-257 melanoma
MDA-MB-435 = tested on: MDA-MB-435
SNB-19 CNS = tested on: SNB-19 CNS
HT29 colon = tested on: HT29 colon
HL-60(TB) leukemia = tested on: HL-60(TB) leukemia
A549 NSCLC = tested on: A549 NSCLC
OVCAR-5 ovarian = tested on: OVCAR-5 ovarian
HCT-116 colon = tested on: HCT-116 colon
OVCAR-4 ovarian = tested on: OVCAR-4 ovarian
NCI-H522 lung = tested on: NCI-H522 lung
COLO 205 colon = tested on: COLO 205 colon
HCC-2998 colon = tested on: HCC-2998 colon
U251 CNS = tested on: U251 CNS
MDA-N = tested on: MDA-N
A498 renal = tested on: A498 renal
T-47D breast = tested on: T-47D breast
SW-620 colon = tested on: SW-620 colon
K-562 leukemia = tested on: K-562 leukemia
PC-3 prostate = tested on: PC-3 prostate
SK-OV-3 ovarian = tested on: SK-OV-3 ovarian
M14 melanoma = tested on: M14 melanoma
ACHN renal = tested on: ACHN renal
MALME-3M melanoma = tested on: MALME-3M melanoma
UO-31 renal = tested on: UO-31 renal
OVCAR-3 ovarian = tested on: OVCAR-3 ovarian
CCRF-CEM leukemia = tested on: CCRF-CEM leukemia
SF-295 CNS = tested on: SF-295 CNS
MOLT-4 leukemia = tested on: MOLT-4 leukemia
HCT-15 colon = tested on: HCT-15 colon
EKVX NSCLC = tested on: EKVX NSCLC
LOX IMVI melanoma = tested on: LOX IMVI melanoma
NCI/ADR-RES ovarian = tested on: NCI/ADR-RES ovarian
HOP-92 NSCLC = tested on: HOP-92 NSCLC
MCF7 breast = tested on: MCF7 breast
IGROV1 ovarian = tested on: IGROV1 ovarian
NCI-H23 lung = tested on: NCI-H23 lung
NCI-H460 lung = tested on: NCI-H460 lung
RXF 393 renal = tested on: RXF 393 renal
MDA-MB-231 breast = tested on: MDA-MB-231 breast
TK-10 renal = tested on: TK-10 renal
SR leukemia = tested on: SR leukemia

Q: What does the source list for `CCOC(=O)[C@@H]1C2C(=C[C@H]3[C@H]1C(=O)N1CCCC[C@H]31)CCCN2C(=O)OCc1ccccc1` (some centres undefined)?
A: TGI (SN12C renal): > 100 µM; TGI (SK-MEL-28 melanoma): > 100 µM; TGI (KM12 colon): > 100 µM; TGI (SK-MEL-2 melanoma): 56.8 µM; TGI (RPMI-8226 leukemia): 46.4 µM; TGI (DU-145 prostate): > 100 µM; TGI (786-0 renal): > 100 µM; TGI (UACC-62 melanoma): 39.2 µM; TGI (BT-549 breast): 62.5 µM; TGI (NCI-H226 lung): > 100 µM; TGI (OVCAR-8 ovarian): > 100 µM; TGI (SF-539 CNS): > 100 µM; TGI (SK-MEL-5 melanoma): > 100 µM; TGI (HOP-62 NSCLC): > 100 µM; TGI (SNB-75 CNS): > 100 µM; TGI (CAKI-1 renal): > 100 µM; TGI (SF-268 CNS): 60.3 µM; TGI (UACC-257 melanoma): > 100 µM; TGI (MDA-MB-435): > 100 µM; TGI (SNB-19 CNS): > 100 µM; TGI (HT29 colon): > 100 µM; TGI (HL-60(TB) leukemia): 45 µM; TGI (A549 NSCLC): > 100 µM; TGI (OVCAR-5 ovarian): > 100 µM; TGI (HCT-116 colon): > 100 µM; TGI (OVCAR-4 ovarian): > 100 µM; TGI (NCI-H522 lung): 45.2 µM; TGI (COLO 205 colon): 51.3 µM; TGI (HCC-2998 colon): 53.1 µM; TGI (U251 CNS): > 100 µM; TGI (MDA-N): > 100 µM; TGI (A498 renal): 96 µM; TGI (T-47D breast): > 100 µM; TGI (SW-620 colon): > 100 µM; TGI (K-562 leukemia): > 100 µM; TGI (PC-3 prostate): 77.6 µM; TGI (SK-OV-3 ovarian): > 100 µM; TGI (M14 melanoma): > 100 µM; TGI (ACHN renal): > 100 µM; TGI (MALME-3M melanoma): > 100 µM; TGI (UO-31 renal): > 100 µM; TGI (OVCAR-3 ovarian): > 100 µM; TGI (CCRF-CEM leukemia): > 100 µM; TGI (SF-295 CNS): > 100 µM; TGI (MOLT-4 leukemia): 38.2 µM; TGI (HCT-15 colon): > 100 µM; TGI (EKVX NSCLC): > 100 µM; TGI (LOX IMVI melanoma): > 100 µM; TGI (NCI/ADR-RES ovarian): 81.2 µM; TGI (HOP-92 NSCLC): > 100 µM; TGI (MCF7 breast): > 100 µM; TGI (IGROV1 ovarian): > 100 µM; TGI (NCI-H23 lung): 93.9 µM; TGI (NCI-H460 lung): 82.6 µM; TGI (RXF 393 renal): > 100 µM; TGI (MDA-MB-231 breast): > 100 µM; TGI (TK-10 renal): > 100 µM

Q: What does the source list for `C=C(C(=O)OC)[C@H]1CC/C(C)=C/CC[C@@](C)(O)C=CC[C@@]2(C)O[C@@H]2C1`?
A: TGI (SN12C renal): > 100 µM; TGI (SK-MEL-28 melanoma): 41 µM; TGI (KM12 colon): > 100 µM; TGI (SK-MEL-2 melanoma): > 100 µM; TGI (RPMI-8226 leukemia): 41.5 µM; TGI (DU-145 prostate): 84.1 µM; TGI (786-0 renal): 34.8 µM; TGI (UACC-62 melanoma): > 100 µM; TGI (BT-549 breast): > 100 µM; TGI (NCI-H226 lung): > 100 µM; TGI (OVCAR-8 ovarian): 27 µM; TGI (SF-539 CNS): 56.9 µM; TGI (SK-MEL-5 melanoma): 20.1 µM; TGI (HOP-62 NSCLC): > 100 µM; TGI (SNB-75 CNS): > 100 µM; TGI (CAKI-1 renal): 50.2 µM; TGI (SF-268 CNS): > 100 µM; TGI (UACC-257 melanoma): > 100 µM; TGI (MDA-MB-435): 46.1 µM; TGI (SNB-19 CNS): > 100 µM; TGI (HT29 colon): 28.5 µM; TGI (A549 NSCLC): > 100 µM; TGI (OVCAR-5 ovarian): > 100 µM; TGI (HCT-116 colon): 36.6 µM; TGI (OVCAR-4 ovarian): > 100 µM; TGI (COLO 205 colon): 31 µM; TGI (SR leukemia): 33.8 µM; TGI (HCC-2998 colon): > 100 µM; TGI (U251 CNS): > 100 µM; TGI (MDA-N): > 100 µM; TGI (A498 renal): 87.2 µM; TGI (T-47D breast): > 100 µM; TGI (SW-620 colon): > 100 µM; TGI (PC-3 prostate): > 100 µM; TGI (SK-OV-3 ovarian): > 100 µM; TGI (M14 melanoma): > 100 µM; TGI (ACHN renal): > 100 µM; TGI (UO-31 renal): 52.3 µM; TGI (OVCAR-3 ovarian): 42.4 µM; TGI (SF-295 CNS): > 100 µM; TGI (MOLT-4 leukemia): 31.9 µM; TGI (HCT-15 colon): 73.6 µM; TGI (EKVX NSCLC): > 100 µM; TGI (NCI/ADR-RES ovarian): 78.6 µM; TGI (HOP-92 NSCLC): 70.2 µM; TGI (MCF7 breast): > 100 µM; TGI (IGROV1 ovarian): > 100 µM; TGI (NCI-H23 lung): 61 µM; TGI (NCI-H460 lung): > 100 µM; TGI (RXF 393 renal): > 100 µM; TGI (MDA-MB-231 breast): > 100 µM; TGI (TK-10 renal): > 100 µM
